{"source": "PubChem BioAssay AID1508591"}
{"settings": "rat; liver microsomes; pH 7.4; 15.0 min; 1.0 µM", "units": {"half-life": "min"}}
{"smiles": "CC(=O)c1c(C)n(-c2ccccc2)c2ccc(O)cc12", "half-life": 17}
{"smiles": "CN1C(=O)CN=C(c2ccccc2Cl)c2cc(Cl)ccc21", "half-life": 3.04}
{"smiles": "Cc1cc(Nc2nc(-c3ccncc3)nc3ccccc23)n[nH]1", "half-life": 7.3}
{"smiles": "Cc1cc(-c2nnc3n2CCCCC3)c(C)n1-c1ccc(C(C)(C)C)cc1", "half-life": 1.9}
{"smiles": "CCOc1ccc(S(=O)(=O)NCc2cccnc2)cc1NC(=O)c1ccccc1F", "half-life": 2.82}
{"smiles": "O=C1Nc2ccccc2C12CC2c1cc(Cl)c(O)c(Cl)c1", "note": "(stereo not drawn)", "half-life": 9.8}
{"smiles": "COc1cccc(CNc2ccc(S(=O)(=O)Nc3cccc4ccccc34)cc2)c1O", "half-life": 5.8}
{"smiles": "Cc1ccc(-c2cc(C(=O)NC3CCCCC3)c3ccccc3n2)cc1", "half-life": 9.42}
{"smiles": "CCN(c1ccccc1)S(=O)(=O)c1cc(C(=O)Nc2ccc(Br)cc2)ccc1F", "half-life": 1.5}
{"smiles": "Cc1c(-c2nsc(NC(=O)c3cccc(Cl)c3)n2)nnn1-c1ccccc1C(F)(F)F", "half-life": "> 30"}
{"smiles": "O=C(Nc1cccc(C(F)(F)F)c1)c1cc2nc(-c3ccccc3)cc(C(F)(F)F)n2n1", "half-life": "> 30"}
{"smiles": "COc1cc(-c2nc(-c3c(C)noc3C)cc3c2cc(C)n3CCN(C)C)ccn1", "half-life": 19.7}
{"smiles": "O=C(Nc1ccc(S(=O)(=O)Nc2nccs2)cc1)c1cc(-c2ccccc2)nc2ccccc12", "half-life": "> 30"}
{"smiles": "COc1cccc(NC(=O)c2cc(-c3ccc(C)c(C)c3)nc3ccccc23)c1", "half-life": 12}
{"smiles": "CCOC(=O)N1CCN(Cc2nc3cc(NC(=O)CC(C)C)ccc3n2C(C)C)CC1", "half-life": "> 30"}
{"smiles": "Cc1csc2c1c(=O)n(O)c(=O)n2Cc1ccccc1", "half-life": "> 30"}
{"smiles": "CCOc1ccc(-c2csc(N3CCC(C(N)=O)CC3)n2)cc1", "half-life": 9.24}
{"smiles": "Cc1ccc(S(=O)(=O)Nc2cnccc2C(=O)NCCc2ccccc2)cc1", "half-life": 4.9}
{"smiles": "COc1ccccc1N1CCN(CCN(C(=O)c2ccc(F)cc2)c2ccccn2)CC1", "half-life": 2.02}
{"smiles": "COc1ccc2c(ccn2CCC(=O)Nc2ccc3c(c2)C(=O)N2CCC[C@H]2C(=O)N3)c1", "half-life": 9.22}
{"smiles": "COC(=O)c1ccccc1C(=O)Nc1nc(-c2ccccc2)cs1", "half-life": 3}
{"smiles": "COc1ccnc(NC(=S)N2CCN(c3ccccc3C(F)(F)F)CC2)c1", "half-life": 2.9}
{"smiles": "CC(=O)c1c(C)[nH]c(C(=O)Nc2cccc(S(=O)(=O)N3CCCCC3)c2)c1C", "half-life": 1.7}
{"smiles": "CCC1=Nc2cc(C(=O)NCCCOC)ccc2Sc2ccc(Br)cc21", "half-life": 5.46}
{"smiles": "O=C(NCc1ccccc1)C1CCN(c2nc(-c3ccc(Br)cc3)cs2)CC1", "half-life": 1.75}
{"smiles": "Fc1cc(Nc2nc(-c3ccncc3)nc3ccccc23)ccc1-c1ccnc(C(F)(F)F)c1", "half-life": 8.6}
{"smiles": "Cc1n[nH]c(C)c1CCc1nc2c3ccccc3nc(SCC(=O)Nc3ccc(F)cc3)n2n1", "half-life": 2.67}
{"smiles": "Fc1cc(F)cc(Nc2nc(-c3ccncc3)nc3ccccc23)c1", "half-life": 15}
{"smiles": "CC[C@H](C)[C@@H]([C@@H](CC(=O)N1CCC[C@H]1[C@H](OC)[C@@H](C)C(=O)N[C@@H](Cc1ccccc1)c1nccs1)OC)N(C)C(=O)[C@@H](NC(=O)[C@H](C(C)C)N(C)C)C(C)C", "half-life": "> 30"}
{"smiles": "Cn1cc(C2=C(c3cn(C)c4cc([N+](=O)[O-])ccc34)C(=O)NC2=O)c2ccccc21", "half-life": 4.05}
{"smiles": "Cc1ccc(-n2c(=O)c3oc4ccccc4c3n(CC(=O)Nc3ccc(F)c(Cl)c3)c2=O)cc1C", "half-life": 29.6}
{"smiles": "CC(=O)c1sc(NC(=O)c2ccco2)nc1-c1ccccc1", "half-life": 1.8}
{"smiles": "N#Cc1cccc(-c2nccc(-n3ccnc3)n2)c1", "half-life": 26}
{"smiles": "CCOc1ccc(CCNC(=O)c2cc3ccccc3n2Cc2cccc(C)c2)cc1OCC", "half-life": 1.6}
{"smiles": "CC(=O)N1CCN(c2nc(-c3ccc(Br)cc3)cs2)CC1", "half-life": "> 30"}
{"smiles": "Cc1ccc(-c2nnc(N3CCC(C(N)=O)CC3)s2)cc1", "half-life": 6.38}
{"smiles": "COc1ccc2oc(NC3=NC(c4[nH]ncc4Cl)C4=C(CCCC4=O)N3)nc2c1", "note": "(stereo not drawn)", "half-life": 14.2}
{"smiles": "CN1CCN(Cc2ccc(-c3ccc(C(C)(C)C#N)cc3)nc2)CC1", "half-life": 24.6}
{"smiles": "COc1ccc2c(c1)N(C[C@H](C)CN(C)C)c1ccccc1S2", "half-life": 2.07}
{"smiles": "CC(=O)c1ccc(N2CCN(C(=O)c3ccc4c(c3)CC(=O)N4)CC2)cc1", "half-life": "> 30"}
{"smiles": "O=C(Nc1nc(-c2ccccc2)cs1)c1ccncc1NS(=O)(=O)c1cccc2cccnc12", "half-life": 7.4}
{"smiles": "CCN1C(=O)c2ccccc2S(=O)c2ccc(NC(=O)Cc3ccc(F)cc3)cc21", "note": "(stereo not drawn)", "half-life": 6.3}
{"smiles": "Cc1noc(/C=C/c2ccccc2F)c1S(=O)(=O)N1CCC(C(=O)Nc2ccc(C#N)cc2)CC1", "half-life": 24.7}
{"smiles": "Brc1ccc(-c2csc(N3CCCCC3)n2)cc1", "half-life": 3.45}
{"smiles": "O=C1CCC(CNC(=O)c2nc(-c3ccccc3)cc3[nH]ccc23)N1", "note": "(stereo not drawn)", "half-life": "> 30"}
{"smiles": "Nc1ccccc1OCCn1c(CCNC(=O)C2CCCCC2)nc2ccccc21", "half-life": 2.13}
{"smiles": "CCOc1ccc(CCNC(=O)c2cc3sccc3n2Cc2ccncc2)cc1OCC", "half-life": 1.6}
{"smiles": "COc1ccccc1-c1csc(N2CCC(C(N)=O)CC2)n1", "half-life": 15}
{"smiles": "COc1ccc(-c2nc(NC(C)c3ccccc3)c3ccccc3n2)cc1", "note": "(stereo not drawn)", "half-life": 20.3}
{"smiles": "COC(=O)CSc1nc(-c2ccccc2)cc(-c2ccco2)c1C#N", "half-life": 1}
{"smiles": "O=S(=O)(Nc1ccc(S(=O)(=O)Nc2nccs2)cc1)c1ccc2ccccc2c1", "half-life": "> 30"}
{"smiles": "Cc1ccccc1C(=O)N1CCc2cc(-c3ccnc(NC(=O)Cc4ccccc4)n3)ccc21", "half-life": 5.5}
{"smiles": "CCn1nc(C2CCN(C(=O)CCO)CC2)nc1-c1cnc(N)c(-c2nnc(C(C)(C)C)o2)n1", "half-life": "> 30"}
{"smiles": "O=C(CNC12CC3CC(CC(C3)C1)C2)c1ccc(Cl)cc1", "half-life": 2.2}
{"smiles": "O=C(NCCCN1CCCC1=O)c1ccc(-c2ncc3cnc(-c4ccccc4)cn23)cc1", "half-life": "> 30"}
{"smiles": "CCOc1ccc(C(=O)Nc2ccc(S(=O)(=O)N3CCCCC3c3cccnc3)cc2)cc1", "note": "(stereo not drawn)", "half-life": 1.71}
{"smiles": "Cc1ccc(-c2cc(C(=O)Nc3ccc(-n4cccn4)cc3)c3ccccc3n2)cc1C", "half-life": 9.1}
{"smiles": "O=C(Nc1nc2cc(C(F)(F)F)cc(NC3CC3)n2n1)c1cccnc1", "half-life": "> 30"}
{"smiles": "CC1=Nc2cc(C(=O)NCCc3ccccc3)ccc2Sc2c(C)ccc(C)c21", "half-life": 1.54}
{"smiles": "O=C(c1nc(-c2cccnc2)c2ccccn12)N1CCN(c2ncccn2)CC1", "half-life": 8.43}
{"smiles": "O=C(Nc1nc(-c2ccccc2)cs1)c1ccncc1NS(=O)(=O)c1cccc(Cl)c1", "half-life": 5}
{"smiles": "CCCCCNc1oc(-c2cccc3ccccc23)nc1C#N", "half-life": 2.1}
{"smiles": "CCn1c(SCc2ccc(C#N)cc2)nnc1-c1cccc(Cl)c1", "half-life": 3}
{"smiles": "Cc1ccc(S(=O)(=O)Nc2ccncc2C(=O)Nc2nc(-c3ccccc3)cs2)cc1", "half-life": "> 30"}
{"smiles": "Cc1nc(-c2ccccc2)cc([C@H]2CN3CC[C@H]2C[C@@H]3CNC2CCOCC2)n1", "half-life": "> 30"}
{"smiles": "O=C1Nc2c(Cl)cccc2/C1=C\\c1cc(Cl)c(O)c(Cl)c1", "half-life": "> 30"}
{"smiles": "Cc1cc(-c2nnc3n2CCCCC3)c(C)n1-c1ccc(Cl)c(Cl)c1", "half-life": 1.9}
{"smiles": "Cc1ccc(S(=O)(=O)Nc2ccc(Br)cc2C(=O)Nc2nc(-c3ccccc3)cs2)cc1", "half-life": 8.9}
{"smiles": "O=S(=O)(Nc1ccccc1N1CCCCC1)c1ccc(Cl)s1", "half-life": 2.02}
{"smiles": "CC(C)C[C@H](NC(=O)[C@H](CCc1ccccc1)NC(=O)CN1CCOCC1)C(=O)N[C@@H](Cc1ccccc1)C(=O)N[C@@H](CC(C)C)C(=O)[C@@]1(C)CO1", "half-life": 3.52}
{"smiles": "Cc1ccc(S(=O)(=O)Nc2ccccc2C(=O)Nc2cnc(-c3ccccc3)cn2)cc1", "half-life": 3.5}
{"smiles": "COc1ccccc1S(=O)(=O)Nc1cnccc1C(=O)Nc1nc(-c2ccccc2)cs1", "half-life": 16}
{"smiles": "Cc1ccc(N(C)S(=O)(=O)c2ccc(-c3cnc(C4CC4)o3)cc2)cc1", "half-life": 3.6}
